Source: publication PMC3871589, “Evaluation of STAT3 Signaling in ALDH+ and ALDH+/CD44+/CD24− Subpopulations of Breast Cancer Cells” (PLoS ONE, 2013)

Legend:
Type in all cases: cell-based, human
[1] = tested on: ALDH+ subpopulation from MDA-MB-231, SUM159, and SK-BR3 cells; experiment: MTT cell viability assay, ALDH+ subpopulation; settings: 1 to 10 µmol/L 72 hours, ShRNA 48 hours
Experimental: (§1) The breast cancer cells were seeded in 96-well plates (3,000 cells/well) in triplicates in a serum-free mammary epithelial basal medium. The following day, cancer cells were treated with 1 to 10 µmol/L of LLL12 or Stattic for 72 hours, STAT3 ShRNA or control GFP shRNA lentivirus (CTL ShRNA) for 48 hours. MTT (Thiazolyl Blue Tetrazolium Bromide, Sigma-Aldrich) assay was used to determine the cell viability.

[2] = tested on: ALDH+ subpopulations of SK-BR-3, MDA-MB-231, and SUM159; experiment: Tumorsphere formation, ALDH+ subpopulations; settings: 2.5–10 µmol/L, 10 to 15 days
Experimental: ALDH^+ and ALDH^+/CD44^+/CD24^− cells were plated as single cells in ultra-low attachment six-well plates at a density of 250, 500, 1000 or 50,000 viable cells/well as previously described. On the second day after seeding, the ALDH^+ cancer cells were treated with 2.5–10 µmol/L of LLL12 or Stattic. For tumorsphere forming capacity assay, ALDH^+ or ALDH^− cells were plated as single cells in ultra-low attachment six-well plates at a density of 250, 500 or 1000 viable cells/well. Tumorsphere growth was observed under a microscope 10 to 15 days later.

[3] = tested on: ALDH+ subpopulation in MDA-MB-231, SUM159, and SK-BR3 cancer cells; experiment: ALDEFLUOR assay, percentage of ALDH+ subpopulation; settings: un-separated MDA-MB-231, SUM159, SK-BR3; LLL12 5 µmol/L or Stattic 10 µM, 24 hours
Experimental: (§2) The ALDEFLUOR kit (StemCell Technologies) was used to isolate the population with high ALDH enzymatic activity as previously described. Briefly, cells were trypsinized to single cells using 0.05% trypsin and subsequently suspended in ALDEFLUOR assay buffer containing ALDH substrate (BAAA, 1 µmol/l per 1×10^6 cells) and then incubated for 40 minutes at 37°C. For each sample, an aliquot of cells was stained under identical conditions with 15 mmol/L diethylaminobenzaldehyde (DEAB), a specific ALDH inhibitor, as an ALDH^− control. Anti-human PE-CD24 and PE-Cy5-CD44 antibody (BioLegend) were used for CD44/CD24 identification and to separate ALDH^+/CD44^+/CD24^− and ALDH^−/CD44^+/CD24^+ cells when combined with ALDH staining. Analysis was performed using a FACStarPLUS (Becton Dickinion) flow cytometer. To assess the effect of STAT3 inhibitors on the subpopulation of ALDH^+ cells, un-separated breast cancer cells were treated with 5 µmol/L of LLL12 or 10 µmol/L Stattic for 24 hours prior to performing the ALDEFLUOR assay.

[4] = tested on: ALDH− cells; experiment: MTT cell viability assay, ALDH− subpopulation; settings: Figure S4
Experimental: as §1

[5] = tested on: ERK1/2 phosphorylation; experiment: ERK1/2 phosphorylation in ALDH+ cells; settings: ALDH+ breast cancer stem-like cells; 10 µmol/L, 24 hours
Experimental: After sorting by flow cytometry, ALDH^+ and ALDH^+/CD44^+/CD24^− stem-like cells were cultured in serum-free stem cell medium in ultra-low attachment six-well plates (Corning) to maintain cancer stem cell characteristics. ALDH^−, ALDH^−/CD44^+/CD24^+cells and un-separated cells were cultured in regular medium and replaced with identical stem cell medium for three days before being harvested. To assess the effects of STAT3 inhibitors, ALDH^+ and ALDH^+/CD44^+/CD24^− subpopulations of breast cancer cells were treated with LLL12 (5 µmol/L) of or static (10 µmol/L) for 24 hours. STAT3, or control GFP shRNA lentivirus (CTL ShRNA) was introduced into ALDH^+ breast cancer stem-like cells for 48 hours, then followed by selection with puromycin (0.2 µg/ml) for 72 hours. Antibodies (Cell Signaling Tech.) against phospho-specific STAT3 (Tyrosine 705) (P-STAT3, Y705), ERK1/2 (Threonine 202/Tyrosine 204), cleaved Poly (ADP-ribose) polymerase (PARP), ALDH1, cleaved caspase-3, and GAPDH were used for western blots.

[6] = tested on: STAT3 phosphorylation (Y705); experiment: Western blot of STAT3 phosphorylation in ALDH+ cells; settings: LLL12 5 µmol/L or Stattic 10 µmol/L 24 hours, ShRNA 48 hours then puromycin
Experimental: as §2
After sorting by flow cytometry, ALDH^+ and ALDH^+/CD44^+/CD24^− stem-like cells were cultured in serum-free stem cell medium in ultra-low attachment six-well plates (Corning) to maintain cancer stem cell characteristics. […]

O=[N+]([O-])c1ccc2c(c1)S(=O)(=O)C=C2 [Stattic, reference compound]
cell viability of the ALDH+ subpopulation [1]: inhibit | tumorsphere formation [2]: suppress | ALDH+ subpopulation (percentage) [3]: decreased | effects against the ALDH− cells (cell viability) [4]: some inhibitory effects | ERK1/2 phosphorylation [5]: not | STAT3 phosphorylation in ALDH+ cells [6]: reduced
